Reference: US20220315572A1, “SUBSTITUTED CYANOPYRROLIDINES WITH ACTIVITY AS USP30 INHIBITORS” (MISSION THERAPEUTICS LIMITED, priority 2019, published 2022)

Legend:
UUO injured kidneys = test: Unilateral ureteral obstructive kidney disease model (UUO); assay type: in vivo, C57BL/6 mice; settings: 10 days
Excerpt: (f) The unilateral ureteral obstructive kidney disease model (UUO). [Chevalier et al, 2009, Kidney Int 75(11): 1145-1152] UUO causes renal injury characterised by tubular cell injury, interstitial inflammation and fibrosis. It serves as a model of irreversible post-renal acute kidney injury (AKI). Experimental UUO has illustrated the molecular mechanisms of apoptosis, inflammation and fibrosis, all of which are key processes in renal injury, regardless of the primary insult. Consequently, the UUO model provides investigators information beyond obstruction. Example 1 was assessed in the UUO model to determine the ability of the compound to attenuate progressive tubulointerstitial fibrosis and chronic kidney disease (CKD). On day 1 of the study, adult C57BL/6 mice were dosed by oral gavage according to one of the following dosing regimens; Vehicle or 5 mg/kg Example 1 BID. Two hours post dosing on day 1 study mice underwent surgery to ligate the left ureter at two points. Successful UUO surgery was later confirmed by observation of dilation of renal pelvis due to hydronephrosis. The animals were dosed according to their prescribed regimen for 10 days at which point kidneys were harvested, or histopathology assessment and for protein/RNA assessment. […]

[1] = tested on: UCHL1, USP2, USP4, USP8, USP10, USP12/UAF1, USP15, USP16, USP21, USP22, USP25, USP28, USP35, USP36, USP46/UAF1; test: DUB biochemical IC50 assays, off-target panel; settings: bound over all 15 DUBs listed
Log D = assay type: physicochemical; settings: pH 7.4; read-out: Log D measured at pH 7.4
Excerpt: log D: distribution co-efficient; lipophilicity measurement.

TOM20 ubiquitylation = test: TOM20-ubiquitylation assay; assay type: cell-based, Human; settings: antimycin A/oligomycin mitophagy trigger; n = 5, (0.015-0.075) printed below
Excerpt: Human cell lines can be challenged with mitochondrial depolarizing agents (ionophores (eg. CCCP, valinomycin), mitochondrial complex inhibitors (oligomycin, antimycin A)) to induce ubiquitylation of TOM20, which is then further promoted in the presence of USP30 inhibitors. TOM20 ubiquitylation is subsequently assessed through western blotting of the cell lysates, with TOM20 ubiquitylation adduct detection possible due to an 8 kDa molecule weight increase for each molecule of ubiquitin added, resulting in laddering of a TOM20 immunoreactive band. TOM20-ubiquitylation levels can be quantified using chemiluminescence densitometry of laddered immunoreactive bands.

TK6 cells = test: In vitro micronucleus assay; assay type: cell-based; settings: 27 hours recovery
Procedure: The micronucleus assay may be used to determine if a compound is genotoxic by evaluating the presence of micronuclei. Micronuclei may contain chromosome fragments produced from DNA breakage (clastogens) or whole chromosomes produced by disruption of the mitotic apparatus (aneugens).
Example 1 was assessed in the bacterial reverse mutation assay (Ames) and in vitro micronucleus assay. All in vitro tests were conducted with and without exogenous metabolic activation using concentrations up to those limited by cytotoxicity or insolubility.
Induction of chromosome damage was assessed using the in vitro micronucleus assay in TK6 cells. Example 1 was negative for induction of micronuclei when incubated for 3 hours in the presence of exogenous metabolic activation followed by 27 hours recovery, and also when incubated for 27 hours in the absence of exogenous metabolic activation followed by 27 hours recovery.

FaSSIF solubility = assay type: physicochemical; settings: simulated intestinal fluid, fasted state
Excerpt: FaSSIF: simulated intestinal fluid in fasted state measured at pH 6.5.

Hepatocyte Cl mouse = assay type: in vitro ADME; settings: mouse hepatocytes
Procedure: Hep Cl mouse: in vitro hepatocyte clearance in mouse cells.
Clu: in vitro clearance. Clu as defined here is the scaled clearance, in turn calculated from the intrinsic clearance. The intrinsic clearance is the predicted clearance due to hepatic metabolic reactions, determined from incubation of a compound in a hepatocyte preparation.

USP30 = target: T1, USP30 (Mus musculus, UniProt Q3UN04); test: USP30 kidney tissue target engagement assay (TE ex vivo); assay type: in vivo; settings: Mouse kidney 10 mg/kg PO
T1 construct: brain or kidney tissue samples from compound-dosed animals; from tissue; host or cells: kidney
T1 sequence (Q3UN04 1-517): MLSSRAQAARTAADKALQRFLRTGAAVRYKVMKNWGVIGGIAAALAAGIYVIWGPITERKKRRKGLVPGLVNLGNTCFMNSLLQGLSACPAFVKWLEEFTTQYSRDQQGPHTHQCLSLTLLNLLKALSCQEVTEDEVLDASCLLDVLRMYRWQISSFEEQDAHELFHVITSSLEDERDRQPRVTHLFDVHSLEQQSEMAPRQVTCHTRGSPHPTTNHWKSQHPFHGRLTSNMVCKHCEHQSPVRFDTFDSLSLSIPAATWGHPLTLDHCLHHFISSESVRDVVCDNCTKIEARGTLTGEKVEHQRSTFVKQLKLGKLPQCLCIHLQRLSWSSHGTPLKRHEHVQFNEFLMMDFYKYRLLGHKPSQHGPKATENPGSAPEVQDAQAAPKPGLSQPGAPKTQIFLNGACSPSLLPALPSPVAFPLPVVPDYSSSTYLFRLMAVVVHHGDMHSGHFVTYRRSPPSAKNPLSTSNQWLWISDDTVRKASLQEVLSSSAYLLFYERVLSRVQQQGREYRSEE
Procedure: 50 to 100 mg of tissue was homogenised in 3× volume of lysis buffer (50 mM Tris, pH 7.5, 50 mM NaCl, 0.1% NP-40/Igepal CA-630, 0.5% CHAPS, 2 mM MgCl2, 5 mM beta-mercaptoethanol, cOmplete mini tablets EDTA free (Roche), PhosStop tablets (Roche)) using a Retch Mixer Mill (MM400). Lysate containing 60 μg protein was incubated with a final conc of 6 μM of HA-Ahx-Ahx-Ub-VME probe for 15 mins at room temperature. The reaction was stopped by addition of 5×SDS sample loading buffer and proteins separated by SDS-PAGE and western blotting. USP30 was detected using an anti-USP30 Sheep S746D antibody (MRC PPU Reagents and Services) and a rabbit anti sheep secondary IgG (H+L) horseradish peroxidase conjugated (Thermo #31480) and visualised using ECL reagent (GE #RPN2109) on a GE LAS4000 imager. Target engagement was measured by quantitation of the bands corresponding to USP30 and USP30 bound to the Ub-VME probe and expression of this proportion compared to vehicle treated control.
TE ex vivo: USP30 kidney tissue target engagement assay.

## C[C@@H]1C[C@@H](NC(=O)c2nnc(-c3cccc(C#N)c3)o2)CN1C#N [Example 1, N-((3R,5R)-1-Cyano-5-methylpyrrolidin-3-yl)-5-(3-cyanophenyl)-1,3,4-oxadiazole-2-carboxamide]
UUO injured kidneys; 5 mg/kg oral BID, compared to vehicle treated controls
  α-SMA levels in UUO injured kidneys: statistically reduced α-SMA levels
UUO injured kidneys; 5 mg/kg p.o. BID
  collagen deposition, picrosirius red staining in ligated kidneys: statistically reduced collagen deposition
[1]
  IC50: ≥ 5.8 µM
Log D
  logD: 1.3
TOM20 ubiquitylation
  TOM20-Ub 1.5-fold gain EC1.5x (μM): 0.035 (n = 5) μM
TK6 cells; 3 hours in the presence of exogenous metabolic activation
  induction of micronuclei: negative
TK6 cells; 27 hours in the absence of exogenous metabolic activation
  induction of micronuclei: negative
FaSSIF solubility
  FaSSIF (μM) measured at pH 6.5: 415 μM
Hepatocyte Cl mouse
  Hepatocyte Cl mouse scaled Clu: 45 mL/min/kg
USP30; 1 h post-dose
  TE ex vivo TE % occupancy: 94%
USP30; 4 h post-dose
  TE ex vivo TE % occupancy: 89%
USP30; 8 h post-dose
  TE ex vivo TE % occupancy: 79%
USP30; 12 h post-dose
  TE ex vivo TE % occupancy: 8%
